According to patent US20210382058A1, “PATIENT SELECTION FOR TREATMENT OF MYC POSITIVE CANCERS WITH INDENOISOQUINOLINES” (Purdue Research Foundation, priority 2020, published 2021):
Read-outs that look alike come from different tables or passages of the source.

Legend:
[1] = test system: MYC protein expression in MCF-7 breast cancer cells; experiment: Western blotting of MYC protein level in MCF-7 cells; assay type: cell-based, human
Method in brief: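 MCF-7 cells were exposed to compounds at 0.5, 1, 2 and 4 μM for 24 hours at 37° C. MYC was detected by immunoblot with ECL, using rabbit anti-MYC (1:1000) and anti-GAPDH (1:2000) as loading control.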

NCI-60 cancer cell lines = experiment: NCI-60 cancer cell line drug screen (GI50, MGM); assay type: cell-based, human; conditions: Homo sapiens; for GI50: read-out: Antiproliferative Activities [GI50 (μM)]
Experimental: Cancer cells were incubated with the test compounds at five concentrations ranging from 100 μM to 10 nM for 48 h. […] The approximate average of GI50 values across the entire panel of NCI-60 cancer cell lines for each compound was recorded as the MGM value.

MycG4 (MycPu22 DNA) = experiment: 1H NMR titration of MycPu22 DNA; assay type: binding, human; conditions: 150 μM DNA, 25° C., pH 7, 100 mM K+
Source text: The binding interactions of six selected indenoisoquinolines with MycG4 were examined using ^1H NMR titration experiments in K^+-containing solution. […] The binding appeared to be in the medium-to-fast exchange rate on the NMR time-scale, as shown by the broadening of DNA proton peaks at lower drug equivalence (0.5 and 1) and the sharpening at higher drug equivalence (2 and 3). […] The MycG4 complexes of the five MycG4-interactive indenoisoquinolines were monomeric in nature as shown by native EMSA gels (FIG. 13).
All NMR experiments were conducted using a Bruker AV-500 spectrometer equipped with a Prodigy cryoprobe at 25° C. Watergate water suppression technique was used to suppress water signals. Briefly, each DNA sample was prepared to a final concentration of […] in 75 mM KCl, 25 mM phosphate buffer at pH 7.0, and containing 90/10% H2O/D2O. DNA samples were heated to 95° C. for 5 min then cooled slowly to room temperature for G4 formation. ^1H-NMR titrations were performed by adding increasing amounts of the compound (0.5 to 4 equivalents) to the oligonucleotide solution.

## O=C1c2ccccc2-c2c1c1ccccc1c(=O)n2CCCNCCO [Compound 13]
[1]; Homo sapiens, MCF7, western blotting, MCF-7 cells, 0.5, 1, 2, and 4 μM, 24 hours, read-out: MYC Inhibition
  minimal effective concentration: 0.5 to 1 µM
[1]; MCF-7, 0.5, 1, 2, and 4 μM, 24 h
  MYC-inhibitory effect (MYC protein, western blot): clear MYC-inhibitory effect
NCI-60 cancer cell lines; 786-0, Renal Cancer, 786-0
  GI50: 0.06 µM
NCI-60 cancer cell lines; A498, Renal Cancer, A498
  GI50: 0.13 µM
NCI-60 cancer cell lines; A549, Non-Small Cell Lung Cancer, A549/ATCC
  GI50: 0.06 µM
NCI-60 cancer cell lines; ACHN, Renal Cancer, ACHN
  GI50: 0.04 µM
NCI-60 cancer cell lines; BT-549, Breast Cancer, BT-549
  GI50: 0.28 µM
NCI-60 cancer cell lines; CAKI-1, Renal Cancer, CAKI-1
  GI50: 0.24 µM
NCI-60 cancer cell lines; CCRF-CEM, Leukemia, CCRF-CEM
  GI50: 0.01 µM
NCI-60 cancer cell lines; COLO 205, Colon Cancer, COLO 205
  GI50: 0.07 µM
NCI-60 cancer cell lines; DU-145, Prostate Cancer, DU-145
  GI50: 0.06 µM
NCI-60 cancer cell lines; EKVX, Non-Small Cell Lung Cancer, EKVX
  GI50: 0.43 µM
NCI-60 cancer cell lines; HCC 2998, Colon Cancer, HCC-2998
  GI50: 0.19 µM
NCI-60 cancer cell lines; HCT-15, Colon Cancer, HCT-15
  GI50: 0.15 µM
NCI-60 cancer cell lines; HCT-116, Colon Cancer, HCT-116
  GI50: 0.04 µM
NCI-60 cancer cell lines; HL-60, Leukemia, HL-60(TB)
  GI50: 0.21 µM
NCI-60 cancer cell lines; HOP-62, Non-Small Cell Lung Cancer, HOP-62
  GI50: 0.03 µM
NCI-60 cancer cell lines; HOP-92, Non-Small Cell Lung Cancer, HOP-92
  GI50: 0.15 µM
NCI-60 cancer cell lines; HT-29, Colon Cancer, HT29
  GI50: 0.12 µM
NCI-60 cancer cell lines; Hs-578T, Breast Cancer, HS 578T
  GI50: 0.66 µM
NCI-60 cancer cell lines; K562, Leukemia, K-562
  GI50: 0.18 µM
NCI-60 cancer cell lines; KM12, Colon Cancer, KM12
  GI50: 0.19 µM
NCI-60 cancer cell lines; LOX IMVI, Melanoma, LOX IMVI
  GI50: 0.05 µM
NCI-60 cancer cell lines; Leukemia, SR
  GI50: < 0.01 µM
NCI-60 cancer cell lines; MCF7, Breast Cancer, MCF7
  GI50: < 0.01 µM
NCI-60 cancer cell lines; MDA-MB-231, Breast Cancer, MDA-MB-231/ATCC
  GI50: 0.68 µM
NCI-60 cancer cell lines; MDA-MB-435, Melanoma, MDA-MB-435
  GI50: 0.39 µM
NCI-60 cancer cell lines; MOLT-4, Leukemia, MOLT-4
  GI50: < 0.01 µM
NCI-60 cancer cell lines; Malme-3M, Melanoma, MALME-3M
  GI50: 0.21 µM
NCI-60 cancer cell lines; Melanoma, M14
  GI50: 0.32 µM
NCI-60 cancer cell lines; NCI-H23, Non-Small Cell Lung Cancer, NCI-H23
  GI50: 0.21 µM
NCI-60 cancer cell lines; NCI-H226, Non-Small Cell Lung Cancer, NCI-H226
  GI50: 1.42 µM
NCI-60 cancer cell lines; NCI-H322M, Non-Small Cell Lung Cancer, NCI-H322M
  GI50: 0.34 µM
NCI-60 cancer cell lines; NCI-H460, Non-Small Cell Lung Cancer, NCI-H460
  GI50: < 0.01 µM
NCI-60 cancer cell lines; NCI-H522, Non-Small Cell Lung Cancer, NCI-H522
  GI50: 0.02 µM
NCI-60 cancer cell lines; OVCAR-3, Ovarian Cancer, OVCAR-3
  GI50: 0.41 µM
NCI-60 cancer cell lines; OVCAR-4, Ovarian Cancer, OVCAR-4
  GI50: 0.23 µM
NCI-60 cancer cell lines; OVCAR-5, Ovarian Cancer, OVCAR-5
  GI50: 0.38 µM
NCI-60 cancer cell lines; OVCAR-8, Ovarian Cancer, OVCAR-8
  GI50: 0.07 µM
NCI-60 cancer cell lines; Ovarian Cancer, NCl/ADR-RES
  GI50: 1.04 µM
NCI-60 cancer cell lines; Prostate Cancer, PC-3
  GI50: 0.28 µM
NCI-60 cancer cell lines; RPMI-8226, Leukemia, RPMI-8226
  GI50: 0.1 µM
NCI-60 cancer cell lines; RXF 393, Renal Cancer, RXF 393
  GI50: 0.96 µM
NCI-60 cancer cell lines; Renal Cancer, U0-31
  GI50: 0.1 µM
NCI-60 cancer cell lines; SF-268, CNS Cancer, SF-268
  GI50: 0.07 µM
NCI-60 cancer cell lines; SF-295, CNS Cancer, SF-295
  GI50: 0.08 µM
NCI-60 cancer cell lines; SF-539, CNS Cancer, SF-539
  GI50: 0.11 µM
NCI-60 cancer cell lines; SK-MEL-2, Melanoma, SK-MEL-2
  GI50: 0.55 µM
NCI-60 cancer cell lines; SK-MEL-5, Melanoma, SK-MEL-5
  GI50: 0.07 µM
NCI-60 cancer cell lines; SK-MEL-28, Melanoma, SK-MEL-28
  GI50: 1.11 µM
NCI-60 cancer cell lines; SK-OV-3, Ovarian Cancer, SK-OV-3
  GI50: 0.22 µM
NCI-60 cancer cell lines; SN12C, Renal Cancer, SN12C
  GI50: 0.16 µM
NCI-60 cancer cell lines; SNB-19, CNS Cancer, SNB-19
  GI50: 0.11 µM
NCI-60 cancer cell lines; SNB-75, CNS Cancer, SNB-75
  GI50: 0.23 µM
NCI-60 cancer cell lines; SW-620, Colon Cancer, SW-620
  GI50: 0.04 µM
NCI-60 cancer cell lines; T47D, Breast Cancer, T-47D
  GI50: 0.05 µM
NCI-60 cancer cell lines; TK-10, Renal Cancer, TK-10
  GI50: 0.41 µM
NCI-60 cancer cell lines; U-251, CNS Cancer, U251
  GI50: 0.1 µM
NCI-60 cancer cell lines; UACC-62, Melanoma, UACC-62
  GI50: 0.55 µM
NCI-60 cancer cell lines; UACC-257, Melanoma, UACC-257
  GI50: 1.18 µM
NCI-60 cancer cell lines; average of GI50 values across the entire panel of NCI-60 cancer cell lines
  mean GI50 across NCI-60 panel (MGM): 0.14 µM
MycG4 (MycPu22 DNA)
  binding to MycG4 by 1H NMR titration: more specific binding to MycG4
